These are literature values, as cited in patent publication US20090099261A1, “Omega-3 mixtures” (ISI Brands Inc., priority 2007, published 2009).

Some results are limits rather than exact numbers.

For the data set the following is noted: dietary intake; Michael J. James et al., Am. J. Clin. Nutr. 77:1140-45 (2003).

Regarding `CC/C=C\C/C=C\C/C=C\CCCCCCCC(=O)O` [LNA, Linolenic acid], the “share of dietary fatty acid converted to EPA” value is at most 10%.

Turning to `CC/C=C\C/C=C\C/C=C\C/C=C\CCCCC(=O)O` [SA, stearidonic acid], the “share of dietary fatty acid converted to EPA” value is on record as 40%.
